Reference: US9434763B2, “Derivatives of pyridinone as inhibitors for tissue transglutaminase” (ZEDIRA GMBH, priority 2012, dated 2016)

How the values were obtained:
[1] = biological target: T1, FXIII (plasma transglutaminase, factor XIII) (Homo sapiens, UniProt P00488); experiment: Comparative transglutaminase selectivity assay with casein and dansylcadaverine as substrates: FXIII; type: biochemical; details: casein as substrate
T1 construct: purchased Zedira T027
T1 sequence (P00488 1-732): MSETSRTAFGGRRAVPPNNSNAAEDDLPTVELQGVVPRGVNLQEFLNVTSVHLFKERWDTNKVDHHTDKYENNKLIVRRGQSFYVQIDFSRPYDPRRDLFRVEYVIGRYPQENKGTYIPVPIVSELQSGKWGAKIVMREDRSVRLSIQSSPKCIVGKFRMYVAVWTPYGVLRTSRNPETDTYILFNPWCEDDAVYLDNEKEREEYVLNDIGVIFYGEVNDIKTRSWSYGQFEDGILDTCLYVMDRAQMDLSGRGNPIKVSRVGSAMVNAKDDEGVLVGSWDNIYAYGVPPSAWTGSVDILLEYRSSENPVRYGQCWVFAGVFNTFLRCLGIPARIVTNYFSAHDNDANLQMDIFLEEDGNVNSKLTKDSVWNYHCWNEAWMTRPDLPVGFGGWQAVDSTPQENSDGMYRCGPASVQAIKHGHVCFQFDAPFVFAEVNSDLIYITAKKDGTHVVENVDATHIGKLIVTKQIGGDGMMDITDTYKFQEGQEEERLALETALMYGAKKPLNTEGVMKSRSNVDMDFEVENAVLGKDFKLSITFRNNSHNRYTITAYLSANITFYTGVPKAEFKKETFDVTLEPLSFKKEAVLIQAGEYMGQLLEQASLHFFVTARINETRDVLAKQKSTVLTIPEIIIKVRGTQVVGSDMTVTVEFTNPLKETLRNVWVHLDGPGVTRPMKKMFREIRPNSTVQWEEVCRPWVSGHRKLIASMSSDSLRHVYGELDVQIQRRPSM
Excerpt: The comparative determination of different transglutaminases to determine the selectivity was made with casein and dansylcadaverine as substrates. Therefore, the kit T036 (Zedira, Darmstadt; Refs: Lorand et al, Anal Biochem, 1971, 44:221-31) as well as transglutaminase products T009 (transglutaminase 1), T012 (transglutaminase 3), T021 (transglutaminase 6) and T027 (plasma transglutaminase, factor XIII) are used. Therefore, two different IC50 values for the compounds are given.
The evaluation of the resulting enzyme activity is done using the slope of the straight line obtained by the increase in fluorescence.
To determine the non-inhibited enzyme activity, DMSO instead of inhibitor stock solution is used. IC50 values are determined by plotting the resulting enzyme activity against the logarithm of the inhibitor concentration. IC50 is defined as the concentration of inhibitor resulting in 50% of enzyme activity.
It should be noted that it was measured here against casein as substrate, which is why other apparent inhibition values (IC50 value) result.

[2] = biological target: T2, His tagged recombinant human tissue transglutaminase (His6-rh-TG2) (Homo sapiens, UniProt P21980); experiment: Inactivation of human tissue transglutaminase, fluorescence assay with Abz-APE(CAD-DNP)QEA-OH; type: biochemical; details: substrate Abz-APE(CAD-DNP)QEA-OH, 37° C., pH=7.5
T2 construct: purchased Zedira T002
T2 sequence (P21980 1-687): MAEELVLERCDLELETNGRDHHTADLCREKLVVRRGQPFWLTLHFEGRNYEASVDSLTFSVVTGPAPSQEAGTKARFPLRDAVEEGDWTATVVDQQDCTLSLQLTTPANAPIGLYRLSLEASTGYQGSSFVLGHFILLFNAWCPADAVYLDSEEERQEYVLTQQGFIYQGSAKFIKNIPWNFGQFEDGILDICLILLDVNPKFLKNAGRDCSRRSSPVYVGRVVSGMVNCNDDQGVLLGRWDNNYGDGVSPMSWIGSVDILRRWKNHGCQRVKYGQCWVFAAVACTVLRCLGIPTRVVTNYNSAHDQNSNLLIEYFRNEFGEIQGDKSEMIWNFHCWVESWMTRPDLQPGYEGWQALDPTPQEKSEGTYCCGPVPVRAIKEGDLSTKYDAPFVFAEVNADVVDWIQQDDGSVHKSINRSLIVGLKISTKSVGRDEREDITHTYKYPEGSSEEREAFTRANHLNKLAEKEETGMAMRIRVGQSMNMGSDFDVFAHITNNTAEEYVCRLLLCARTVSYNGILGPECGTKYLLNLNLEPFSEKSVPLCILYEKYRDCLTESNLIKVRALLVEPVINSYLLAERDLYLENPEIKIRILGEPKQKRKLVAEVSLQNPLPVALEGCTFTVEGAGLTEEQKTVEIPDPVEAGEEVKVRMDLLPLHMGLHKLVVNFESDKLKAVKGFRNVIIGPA
Procedure, shortened: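 His6-rh-TG2 (10 μg per assay) was preincubated 5 min at 37 °C with inhibitor in Tris/CaCl2/PEG8000/DTT/glycine methyl ester assay solution (50 μM Abz-APE(CAD-DNP)QEA-OH), pH 7.5, DMSO <0.2%. Fluorescence (ex 313/em 418 nm) read over 15–30 min and activity taken from the slope. IC50 from activity vs log inhibitor concentration.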

Structure (SMILES)	IC50 [1] [µM]	IC50 [2] [nM]
CCOC(=O)/C=C/CC[C@H](NC(=O)c1cncn1C)C(=O)Nc1cccn(CC(=O)NCCC(C)C)c1=O [A19, (S,E)-Ethyl 7-(1-(2-(isopentylamino)-2-oxoethyl)-2-oxo-1,2-dihydropyridin-3-ylamino)-6-(1-methyl-1H-imidazole-5-carboxamido)-7-oxohept-2-enoate]	81.1	80
CCOC(=O)/C=C/CC[C@H](NC(C)=O)C(=O)Nc1cccn(CC(=O)NCCC(C)C)c1=O [A7, (S,E)-Ethyl 6-acetamido-7-(1-(2-(isopentylamino)-2-oxoethyl)-2-oxo-1,2-dihydropyridin-3-ylamino)-7-oxohept-2-enoate]	105	–
COC(=O)/C=C/CC[C@H](NC(C)=O)C(=O)Nc1cccn(CC(=O)NCCC(C)C)c1=O [A29, (S,E)-methyl 6-acetamido-7-(1-(2-(isopentylamino)-2-oxoethyl)-2-oxo-1,2-dihydropyridin-3-ylamino)-7-oxohept-2-enoate]	67.4	–
CCC(CC)CNC(=O)Cn1cccc(NC(=O)[C@H](CC/C=C/C(=O)OC)NC(C)=O)c1=O [A79, (S,E)-Methyl 6-acetamido-7-(1-(2-(2-ethylbutylamino)-2-oxoethyl)-2-oxo-1,2-dihydropyridin-3-ylamino)-7-oxohept-2-enoate]	78.2	34
CCOC(=O)/C=C/CC[C@H](NC(C)=O)C(=O)Nc1cccn(CC(=O)NCC(CC)CC)c1=O [A62, (S,E)-Ethyl 6-acetamido-7-(1-(2-(2-ethylbutylamino)-2-oxoethyl)-2-oxo-1,2-dihydropyridin-3-ylamino)-7-oxohept-2-enoate]	122	93
CCOC(=O)/C=C/CC[C@H](NC(=O)c1cncn1C)C(=O)Nc1cccn(CC(=O)NCC(CC)CC)c1=O [A58, (S,E)-Ethyl 7-(1-(2-(2-ethylbutylamino)-2-oxoethyl)-2-oxo-1,2-dihydropyridin-3-ylamino)-6-(1-methyl-1H-imidazole-5-carboxamido)-7-oxohept-2-enoate]	120	–
CCOC(=O)/C=C/CC[C@H](NC(=O)c1cncn1C)C(=O)Nc1cccn(CC(=O)N[C@H](C(=O)O)[C@H](C)CC)c1=O [A53, (2S,3R)-2-(2-(3-((S,E)-7-Ethoxy-2-(1-methyl-1H-imidazole-5-carboxamido)-7-oxohept-5-enamido)-2-oxopyridin-1(2H)-yl)acetamido)-3-methylpentanoic acid]	77.7	60
COC(=O)/C=C/CC[C@H](NC(C)=O)C(=O)Nc1cccn(CC(=O)N2CCC(C(F)(F)F)CC2)c1=O [A65, (S,E)-Methyl 6-acetamido-7-oxo-7-(2-oxo-1-(2-oxo-2-(4-(trifluoromethyl)piperidin-1-yl)ethyl)-1,2-dihydropyridin-3-ylamino)hept-2-enoate]	156	132
CCOC(=O)/C=C/CC[C@H](NC(C)=O)C(=O)Nc1cccn(CC(=O)NCCC(CC)CC)c1=O [A42, (S,E)-ethyl 6-acetamido-7-(1-(2-(3-ethylpentylamino)-2-oxoethyl)-2-oxo-1,2-dihydropyridin-3-ylamino)-7-oxohept-2-enoate]	109	147
CCOC(=O)/C=C/CC[C@H](NC(C)=O)C(=O)Nc1cccn(CC(=O)N[C@H](C(=O)OC)[C@H](C)CC)c1=O [A35, (S,E)-ethyl 6-acetamido-7-(1-(2-((2S,3R)-1-methoxy-3-methyl-1-oxopentan-2-ylamino)-2-oxoethyl)-2-oxo-1,2-dihydropyridin-3-ylamino)-7-oxohept-2-enoate]	70.7	55
CC[C@@H](C)[C@H](NC(=O)Cn1cccc(NC(=O)[C@H](CC/C=C/C(=O)OC)NC(=O)c2ccccc2)c1=O)C(=O)O [A61, (2S,3R)-2-(2-(3-((S,E)-2-benzamido-7-methoxy-7-oxohept-5-enamido)-2-oxopyridin-1(2H)-yl)acetamido)-3-methylpentanoic acid]	63.4	–
CCC(CC)CNC(=O)Cn1cccc(NC(=O)[C@H](CC/C=C/C(=O)OC)NC(=O)c2cncn2C)c1=O [A63, (S,E)-Methyl 7-(1-(2-(2-ethylbutylamino)-2-oxoethyl)-2-oxo-1,2-dihydropyridin-3-ylamino)-6-(1-methyl-1H-imidazole-5-carboxamido)-7-oxohept-2-enoate]	89	45
CCOC(=O)/C=C/CC[C@H](NC(=O)CCC(=O)O)C(=O)Nc1cccn(CC(=O)NCC(CC)CC)c1=O [A30, (S,E)-4-(7-Ethoxy-1-(1-(2-(2-ethylbutylamino)-2-oxoethyl)-2-oxo-1,2-dihydropyridin-3-ylamino)-1,7-dioxohept-5-en-2-ylamino)-4-oxobutanoic acid]	90.9	116
COC(=O)/C=C/CC[C@H](NC(C)=O)C(=O)Nc1cccn(CC(=O)N2CCCC(C)C2)c1=O (stereo partly drawn) [A64, (6S,E)-Methyl 6-acetamido-7-(1-(2-(3-methylpipendin-1-yl)-2-oxoethyl)-2-oxo-1,2-dihydropyridin-3-ylamino)-7-oxohept-2-enoate]	120	141
CCOC(=O)/C=C/CC[C@H](NC(=O)c1ccccc1)C(=O)Nc1cccn(CC(=O)N[C@H](C(=O)O)[C@H](C)CC)c1=O [A59, (2S,3R)-2-(2-(3-((S,E)-2-Benzamido-7-ethoxy-7-oxohept-5-enamido)-2-oxopyridin-1(2H)-yl)acetamido)-3-methylpentanoic acid]	79.6	43
CC[C@@H](C)[C@H](NC(=O)Cn1cccc(NC(=O)[C@H](CC/C=C/C(=O)OC)NC(=O)c2cncn2C)c1=O)C(=O)O [A60, (2S,3R)-2-(2-(3-((S,E)-7-Methoxy-2-(1-methyl-1H-imidazole-5-carboxamido)-7-oxohept-5-enamido)-2-oxopyridin-1(2H)-yl)acetamido)-3-methylpentanoic acid]	73.2	54
CCOC(=O)/C=C/CC[C@H](NC(=O)CCC(=O)O)C(=O)Nc1cccn(CC(=O)NCCC(C)C)c1=O [A24, (S,E)-4-(7-Ethoxy-1-(1-(2-(isopentylamino)-2-oxoethyl)-2-oxo-1,2-dihydropyridin-3-ylamino)-1,7-dioxohept-5-en-2-ylamino)-4-oxobutanoic acid]	133	173
